Test results reported in patent US20030226169A1, “DNA sequences encoding antifungal proteins” (priority 1995, published 2003).
≈ marks a conversion by molar mass, not a printed value. Where two headings read alike, the source gives them in different places. Residues, ends and D or L forms follow the SMILES beside them.

What was measured:
F culmorum = assay: Antifungal activity of combinations of Rs-AFP and 15-mer peptides; format: cell-based, Fusarium culmorum; conditions: 100 x MIC of Rs-AFP2 / MIC of Rs-AFP2/peptide combination; 15-mer peptide added at 20 μg/ml; SMF medium; BSA-coated plates; Rs-AFP2 alone = 100
Procedure: The 15-mer peptides were tested for their ability to affect the antifungal activity of the Rs-AFP2 protein (SEQ ID NO: 35). Each peptide was added at a subinhibitory concentration (20 μg/ml ) to a twofold dilution series of Rs-AFP2 (SEQ ID NO: 35) ranging from 20 μg/ml down to 0.15 μg/ml. In the control series only water was added.
The target fungus was F culmorum and the growth medium was SMF. In order to exclude the effect of differential binding of the peptides to the microplate wells, the plates were coated with bovine serum albumin. […] The relative specific activity is defined as one hundred times the MIC of Rs-AFP2 divided by the MIC of the Rs-AFP2/peptide combination. Data are based on duplicate tests.

[1] = system: Ascophyta pisi (MUCL 30164); format: cell-based; conditions: ½ PDB; for A PISI IC: the source numbers peptides by N-terminal amino acid
Procedure: (§1) The following fungal strains were used: Alternaria brassicicola (MUCL 20297), Ascophyta pisi (MUCL 30164), Botrytis cinerea (MUCL 30158), Fusarium culmorum (IMI 180420) and Verticillium dahliae (MUCL 19210).
(§2) Fungi were grown on six cereal agar plates at room temperature and under white fluorescent light except for F culmorum and V dahliae which were grown in the dark. The duration of the spore harvest varied between 10 and 25 days depending on the strain. Spores were collected as follows. Five to ten ml of sterile milli-Q water was poured into each dish and the surface of the agar was rubbed with a sterile spatula to obtain a suspension containing mycelium and spores. This suspension was filtered through a sterile glasswool-plugged funnel and the filtrate containing the spores was collected in a sterile polypropylene centrifuge tube. The A brassicicola spores were suspended in sterile 0.1 Tween 20 (Merk, 822184) due to their hydrophobic nature. The spore suspensions were then washed twice by centrifugation at 2,400×g for 15 minutes and resuspended in a small volume of steril milli-Q water. The spore density was determined in a counting chamber and then adjusted to 4×10^7 spores per ml. Aliquots of the spore suspension were transferred to sterile microtubes and an equal volume of sterile 50% glycerol (Merck, 4091) was added to each tube so that a final spore suspension of 2×10^7 spores per ml in 25% glycerol was obtained. After careful mixing of the stock, the spore suspension was transferred in 100 μl aliquots to sterile microtubes and stored at −80° C.
(§3) Antifungal activity was measured by photospectrometry as described by Broekaert et al, (1990, FEMS Microbiol Lett, 69:55-60). Tests were performed by adding 20 μl of test solution and 80 μl of a fungal spore suspension (2×10^4 spores/ml) per well in a sterile flat-bottom 96-well microtiterplate. The spore suspension was prepared by diluting the stock spore suspension ([…] in 25% glycerol) 1:1000 in half-strength potato dextrose broth. A positive growth control consisting of eight wells containing 20 μl of sterile milli-Q water and 80 μl of the fungal spore suspension was included in each test. The microtiterplates were incubated (with the lid on) in an aerated place at room temperature and under conditions of darkness for all test organisms.
(§4) After 30 minutes of incubation (when the spores are settled on the well bottom) the optical density was measured in a microplate reader (Bio Rad 3550-UV) at 595 nm. Incubation of the microtiterplates continued until the optical density of the control microculture was between 0.250 and 0.500, which took approximately 72 hours (96 hours for V dahliae). Percentage of growth inhibition (% GI) was estimated as 100 times the ratio of the corrected absorbance of the control microculture minus the corrected absorbance of the test microculture over the corrected absorbance of the control microculture at 595 nm. The corrected absorbance values equal the absorbance at 595 nm of the culture measured after 72 or 96 hours minus the absorbance at 595 nm measured after 30 minutes.
(§5) % GI=[(Acontrol−Atest/Acontrol]×100
(§6) where Acontrol=(A72/96h−A30min)control
(§7) The IC50 value is defined as the concentration that gives a 50% growth inhibition after 72 or 96 hours of incubation. The minimum inhibitory concentration (MIC) corresponds to the minimum concentration that gives 100% growth inhibition after 72 or 96 hours incubation.

[2] = system: Fusarium culmorum (IMI 180420); assay: Antifungal growth inhibition microplate assay (photospectrometry); format: cell-based; conditions: ½ PDB; for F CULMORUM IC: Table 6 / FIG. 8: Rs-AFP1-based 9-mer split peptides; for F CULMORUM IC / IC50 / F CULMORUM IC50: the source numbers peptides by N-terminal amino acid; for F CULMORUM IC50: Table 7 / FIG. 8: Rs-AFP1-based 12-mer split peptides
Procedure: as §1, §2, §3, §4, §5, §6, §7

[3] = Table 6: Rs-AFP1-based 9-mer split peptides
[4] = Table 7: Rs-AFP1-based 12-mer split peptides
[5] = Table 4 / FIG. 6: Rs-AFP2-based 12-mer split peptides
[6] = Table 4: Rs-AFP2-based 12-mer split peptides, triplicate

Compound | A PISI IC50 [1, 4] [µg/mL] | A PISI MIC [1, 4] [µg/mL] | IC50 [2, 5] [µg/mL] | MIC [2, 6] [µg/mL] | F CULMORUM IC50 [2] [µg/mL] | F CULMORUM MIC [2, 4] [µg/mL] | other results
Ac-QRPSGTWSGVCGNNN-NH2 (N-terminus and C-terminus assumed) [Peptide 2 (Rs-AFP2 15-mer)] | – | – | – | – | – | – | Relative Specific Antifungal Activity (F culmorum): 120
CC[C@H](C)[C@H](NC(=O)[C@H](CS)NC(=O)[C@H](CCCCN)NC(=O)[C@H](Cc1c[nH]cn1)NC(C)=O)C(=O)N[C@@H](CS)C(=O)N[C@@H](Cc1ccc(O)cc1)C(=O)N[C@@H](Cc1ccccc1)C(=O)N1CCC[C@H]1C(=O)N[C@@H](CS)C(N)=O [compound 89] (Ac-HKCICYFPC-NH2) | – | – | – | – | – | – | A PISI IC [1, 3]: 70 µg/mL; F CULMORUM IC [2]: 233 µg/mL
CC[C@H](C)[C@H](NC(=O)[C@H](CS)NC(=O)[C@H](CCC(N)=O)NC(=O)[C@H](CC(N)=O)NC(=O)[C@H](CCCCN)NC(=O)[C@H](CS)NC(=O)[C@H](C)NC(=O)[C@H](CC(N)=O)NC(=O)[C@H](CC(N)=O)NC(=O)[C@H](CC(N)=O)NC(C)=O)C(=O)N[C@@H](CCCNC(=N)N)C(=O)N[C@@H](CC(C)C)C(=O)N[C@@H](CCC(=O)O)C(=O)N[C@@H](CCCCN)C(=O)N[C@@H](C)C(N)=O [Peptide 5 (Rs-AFP2 15-mer)] (Ac-NNNACKNQCIRLEKA-NH2; N-terminus and C-terminus assumed) | – | – | – | – | – | – | Relative Specific Antifungal Activity (F culmorum): 180
Ac-EKARHGSCNYVF-NH2 [compound 118] | 91 | 200 | 154 | 200 | 63 | 100 | –
Ac-HGSCNYVFPAHK-NH2 [compound 122] | 74 | 100 | 30 | 50 | 35 | 50 | –
114 (CIRLEKARHGSC; listed as Raphanus sativus) [compound 114] | 318 | >400 | 74 | 100 | 328 | 400 | –
CC[C@H](C)[C@H](NC(=O)[C@H](CS)NC(=O)[C@H](CCCCN)NC(=O)[C@H](Cc1c[nH]cn1)NC(=O)[C@H](C)NC(=O)[C@@H]1CCCN1C(=O)[C@H](Cc1ccccc1)NC(C)=O)C(=O)N[C@@H](CS)C(=O)N[C@@H](Cc1ccc(O)cc1)C(N)=O [compound 86] (Ac-FPAHKCICY-NH2) | – | – | – | – | – | – | A PISI MIC [1, 3]: 200 µg/mL; A PISI IC [1, 3]: 80 µg/mL; IC50 ([2]; Table 3 / FIG. 6: Rs-AFP2-based 9-mer split peptides): 144 µg/mL (≈ 128 µM); MIC ([2]; Table 3: Rs-AFP2-based 9-mer split peptides, duplicate): 400 µg/mL (≈ 356 µM); F CULMORUM IC [2]: 196 µg/mL; F CULMORUM MIC [2, 3]: 250 µg/mL
CC[C@H](C)[C@H](NC(=O)[C@H](CS)NC(=O)[C@H](CCCCN)NC(=O)[C@H](Cc1c[nH]cn1)NC(=O)[C@H](C)NC(=O)[C@@H]1CCCN1C(=O)[C@H](Cc1ccccc1)NC(=O)[C@@H](NC(=O)[C@H](Cc1ccc(O)cc1)NC(=O)[C@H](CC(N)=O)NC(C)=O)C(C)C)C(=O)N[C@@H](CS)C(=O)N[C@@H](Cc1ccc(O)cc1)C(N)=O [compound 126] (Ac-NYVFPAHKCICY-NH2) | 298 | 400 | 201 (≈ 134 µM) | 300 (≈ 200 µM) | 189 | 300 | –
